Results: ChEMBL document CHEMBL5214890 (Eur J Med Chem, 2021)
pEC50: −log10 of the molar value. Calls of active or inactive are those of the source. The calls are words filed in the database; no cut-off is given here.

How the values were obtained:
[1] = Toxicity in male db/db mouse assessed as reduction in body weight at 100 nmol/kg, sc administered twice daily for 7 days; type: organism-based; conditions: in vivo, 168 h, time 7 day
[2] = AUC (infinity) in male Sprague-Dawley rat at 25 nmol/kg, iv administered as single dose and measured after 24 hrs by LC-MS/MS analysis; type: ADME, organism-based; design: time 24 hrs, dose 25 nmol/kg, route iv; conditions: in vivo
[3] = Cmax in male Sprague-Dawley rat at 25 nmol/kg, sc administered as single dose and measured after 24 hrs by LC-MS/MS analysis; type: ADME, organism-based; design: time 24 hrs, dose 25 nmol/kg, route sc; conditions: in vivo
[4] = Toxicity in male db/db mouse assessed as change in liver AST level at 30 nmol/kg, sc administered twice daily for 35 days; type: organism-based; conditions: in vivo, 840 h, time 35 day
[5] = molecular target: T1, Glucagon-like peptide 1 receptor (Homo sapiens, UniProt P43220); assay: Agonist activity at human GLP-1R expressed in HEK293 cells incubated for 30 mins and assessed as increase in cAMP accumulation measured by HTRF assay; type: functional, cell-based
[6] = test system: Mus musculus; assay: Antidiabetic activity in male […] assessed as decrease in serum LDL-C level at 30 nmol/kg, sc administered twice daily for 3 weeks; type: functional, organism-based
[7] = test system: Mus musculus; assay: Antidiabetic activity in overnight fasted male C57BL/6J mouse assessed as reduction in acute food intake at 30 nmol/kg, sc administered at -0.5 hrs; type: functional, organism-based
[8] = test system: Mus musculus; assay: Antidiabetic activity in db/db mouse assessed as reduction in plasma insulin level at 10 nmol/kg, ip pretreated with compound and followed by glucose challenge and measured by oral glucose tolerance test; type: functional, organism-based
[9] = Toxicity in male db/db mouse assessed as change in liver ALT level at 30 nmol/kg, sc administered twice daily for 35 days; type: organism-based; conditions: in vivo, 840 h, time 35 day
[10] = Half-life in male Sprague-Dawley rat at 25 nmol/kg, sc administered as single dose and measured after 24 hrs by LC-MS/MS analysis; type: ADME, organism-based; conditions: in vivo
[11] = test system: Mus musculus; assay: Antidiabetic activity in male […] assessed as reduction in food intake at 30 nmol/kg, sc administered twice daily for 3 weeks; type: functional, organism-based
[12] = test system: Mus musculus; assay: Antidiabetic activity in male […] assessed as decrease in serum triglycerides level at 30 nmol/kg, sc administered twice daily for 3 weeks; type: functional, organism-based
[13] = Toxicity in male DIO mouse assessed as change in liver AST level at 100 nmol/kg, sc administered twice daily for 7 days; type: organism-based; conditions: in vivo, 168 h, time 7 day
[14] = Toxicity in male db/db mouse assessed as change in BUN at 100 nmol/kg, sc administered twice daily for 7 days; type: organism-based; conditions: in vivo, 168 h, time 7 day
[15] = Toxicity in male DIO mouse assessed as change in serum amylase at 100 nmol/kg, sc administered twice daily for 7 days; type: organism-based; conditions: in vivo, 168 h, time 7 day
[16] = test system: Mus musculus; assay: Antidiabetic activity in DIO mouse assessed as reduction in plasma insulin level at 10 nmol/kg, ip pretreated with compound and followed by glucose challenge and measured by oral glucose tolerance test; type: functional, organism-based
[17] = test system: Mus musculus; assay: Antidiabetic activity in male […] assessed as increase in serum HDL/LDL ratio at 30 nmol/kg, sc administered twice daily for 3 weeks; type: functional, organism-based
[18] = test system: Mus musculus; assay: Antidiabetic activity in male db/db mouse assessed as decrease in fasted blood glucose at 100 nmol/kg, sc administered twice daily for 7 days; type: functional, organism-based; conditions: time 7.0 day
[19] = test system: Mus musculus; assay: Antidiabetic activity in male db/db mouse assessed as improvement in glucose tolerance at 30 nmol/kg, sc administered twice daily for 35 days; type: functional, organism-based; conditions: time 35.0 day
[20] = MRT in male Sprague-Dawley rat at 25 nmol/kg, sc administered as single dose and measured after 24 hrs by LC-MS/MS analysis; type: ADME, organism-based; conditions: in vivo
[21] = test system: Mus musculus; assay: Antidiabetic activity in male […] assessed as increase in plasma FGF21 level at 30 nmol/kg, sc administered twice daily for 3 weeks; type: functional, organism-based
[22] = test system: Mus musculus; assay: Antidiabetic activity in male DIO mouse assessed as decrease in cumulative food intake at 100 nmol/kg, sc administered twice daily for 7 days; type: functional, organism-based; conditions: time 7.0 day
[23] = test system: Mus musculus; assay: Antidiabetic activity in overnight fasted male C57BL/6J mouse at 10 nmol/kg, ip administered at -30 mins and measured by oral glucose tolerance test; type: functional, organism-based
[24] = Toxicity in male db/db mouse assessed as change in BUN level at 30 nmol/kg, sc administered twice daily for 35 days; type: organism-based; conditions: in vivo, 840 h, time 35 day
[25] = molecular target: T1, Glucagon-like peptide 1 receptor; assay: Agonist activity at human GLP-1R expressed in HEK293 cells incubated for 30 mins and assessed as increase in cAMP accumulation measured by HTRF assay relative to control; type: functional, cell-based; design: concentration or dose not given beside the values; conditions: filed as agonist
[26] = test system: Mus musculus; assay: Antidiabetic activity in male DIO mouse assessed as reduction in acute food intake at 10 nmol/kg, sc measured at 0 to 2 hrs post administration; type: functional, organism-based
[27] = test system: Mus musculus; assay: Antidiabetic activity in male […] assessed as increase in plasma insulin level at 30 nmol/kg, sc administered twice daily for 3 weeks; type: functional, organism-based
[28] = AUC (inifinity) in male Sprague-Dawley rat at 25 nmol/kg, sc administered as single dose and measured after 24 hrs by LC-MS/MS analysis; type: ADME, organism-based; design: dose 25 nmol/kg, time 24 hrs, route sc; conditions: in vivo
[29] = Toxicity in male db/db mouse assessed as change in serum lipase at 100 nmol/kg, sc administered twice daily for 7 days; type: organism-based; conditions: in vivo, 168 h, time 7 day
[30] = Toxicity in male db/db mouse assessed as change in serum amylase at 100 nmol/kg, sc administered twice daily for 7 days; type: organism-based; conditions: in vivo, 168 h, time 7 day
[31] = test system: Mus musculus; assay: Antidiabetic activity in 2 hrs fasted male C57BL/6J mouse at 10 to 30 nmol/kg, ip administered at 0 mins in presence of somatostatin at 10 mg/kg, sc administered at -30 mins and measured by oral glucose tolerance test; type: functional, organism-based; conditions: dose 10-30 nmol/kg
[32] = Toxicity in male […] assessed as normalization of hepatic lipid content at 30 nmol/kg, sc administered twice daily for 3 weeks; type: organism-based; conditions: in vivo, 504 h
[33] = Toxicity in male DIO mouse assessed as change in serum lipase at 100 nmol/kg, sc administered twice daily for 7 days; type: organism-based; conditions: in vivo, 168 h, time 7 day
[34] = Toxicity in male DIO mouse assessed as reduction in body weight at 100 nmol/kg, sc administered twice daily for 7 days; type: organism-based; design: scale not given: the % may be the effect or the level left; conditions: in vivo, 168 h, time 7 day
[35] = molecular target: Glucagon receptor (Homo sapiens, UniProt P47871); assay: Agonist activity at human GCGR expressed in HEK293 cells incubated for 30 mins and assessed as increase in cAMP accumulation measured by HTRF assay; type: functional, cell-based
[36] = Toxicity in male db/db mouse assessed as change in Cre level at 30 nmol/kg, sc administered twice daily for 35 days; type: organism-based; conditions: in vivo, 840 h, time 35 day
[37] = Toxicity in male DIO mouse assessed as change in Cre at 100 nmol/kg, sc administered twice daily for 7 days; type: organism-based; conditions: in vivo, 168 h, time 7 day
[38] = test system: Rattus norvegicus; assay: Antidiabetic activity in overnight fasted male Sprague-Dawley rat assessed as reduction in food intake at 300 nmol/kg, ip; type: functional; design: scale not given: the % may be the effect or the level left
[39] = test system: Mus musculus; assay: Antidiabetic activity in male db/db mouse assessed as increase in insulin IOD value at 30 nmol/kg, sc administered twice daily for 35 days; type: functional, organism-based; conditions: time 35.0 day
[40] = test system: Mus musculus; assay: Antidiabetic activity in male db/db mouse assessed as increase in islet number at 30 nmol/kg, sc administered twice daily for 35 days; type: functional, organism-based; conditions: time 35.0 day
[41] = test system: Rattus norvegicus; assay: Antidiabetic activity in overnight fasted male Sprague-Dawley rat assessed as reduction in food intake at 100 nmol/kg, ip; type: functional; design: scale not given: the % may be the effect or the level left

T1 sequence (P43220 whole entry): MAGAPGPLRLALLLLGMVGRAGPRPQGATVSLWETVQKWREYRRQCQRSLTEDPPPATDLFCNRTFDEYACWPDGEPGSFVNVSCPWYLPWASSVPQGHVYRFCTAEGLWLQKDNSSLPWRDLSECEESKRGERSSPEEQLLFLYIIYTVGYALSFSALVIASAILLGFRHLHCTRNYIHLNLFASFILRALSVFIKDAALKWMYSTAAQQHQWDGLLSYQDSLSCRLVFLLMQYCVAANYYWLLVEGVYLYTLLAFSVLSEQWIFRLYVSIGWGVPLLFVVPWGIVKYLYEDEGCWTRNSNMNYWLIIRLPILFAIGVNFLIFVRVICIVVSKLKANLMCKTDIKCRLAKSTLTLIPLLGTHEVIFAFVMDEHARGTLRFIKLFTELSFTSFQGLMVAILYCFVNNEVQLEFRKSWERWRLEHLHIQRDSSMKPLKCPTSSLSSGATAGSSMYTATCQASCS
Chain of Glucagon receptor (P47871 whole entry): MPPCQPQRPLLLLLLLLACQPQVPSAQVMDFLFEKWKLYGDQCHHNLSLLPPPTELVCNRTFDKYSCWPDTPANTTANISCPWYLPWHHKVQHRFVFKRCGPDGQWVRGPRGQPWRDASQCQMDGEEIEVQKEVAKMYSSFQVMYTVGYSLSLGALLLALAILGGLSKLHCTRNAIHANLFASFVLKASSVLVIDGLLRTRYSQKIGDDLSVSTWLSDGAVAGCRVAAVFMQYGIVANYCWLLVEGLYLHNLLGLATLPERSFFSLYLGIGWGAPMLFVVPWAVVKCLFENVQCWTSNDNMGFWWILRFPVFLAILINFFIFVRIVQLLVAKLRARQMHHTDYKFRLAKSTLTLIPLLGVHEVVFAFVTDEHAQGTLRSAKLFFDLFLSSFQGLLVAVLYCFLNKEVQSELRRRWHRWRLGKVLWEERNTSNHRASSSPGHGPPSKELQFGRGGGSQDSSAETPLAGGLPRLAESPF

For CCCCCCCCCCCCCCCC(=O)N[C@@H](CCC(=O)NCCCC[C@H](NC(=O)[C@H](Cc1ccc(O)cc1)NC(=O)[C@H](CCCCN)NC(=O)[C@H](CO)NC(=O)[C@@H](NC(=O)[C@H](CC(=O)O)NC(=O)[C@H](CC(N)=O)NC(=O)[C@@H](NC(=O)[C@H](Cc1ccc(O)cc1)NC(=O)[C@@H](NC(=O)CNC(=O)[C@H](CCC(N)=O)NC(=O)[C@@H](CO)NC(=O)[C@@H](N)Cc1c[nH]cn1)[C@@H](C)O)[C@@H](C)O)C(C)C)C(=O)N[C@@H](CC(=O)O)C(=O)N[C@@H](CO)C(=O)N[C@@H](CCCNC(=N)N)C(=O)N[C@@H](CCCNC(=N)N)C(=O)N[C@@H](C)C(=O)N[C@@H](CCC(N)=O)C(=O)N[C@@H](CC(=O)O)C(=O)N[C@@H](Cc1ccccc1)C(=O)N[C@H](C(=O)N[C@@H](CCC(=O)O)C(=O)N[C@@H](Cc1c[nH]c2ccccc12)C(=O)N[C@@H](CC(C)C)C(=O)N[C@@H](CCCCN)C(=O)N[C@@H](CC(N)=O)C(=O)NCC(=O)NCC(=O)N1CCC[C@H]1C(=O)N[C@@H](CO)C(=O)N[C@@H](CO)C(=O)NCC(=O)N[C@@H](C)C(=O)N1CCC[C@H]1C(=O)N1CCC[C@H]1C(=O)N1CCC[C@H]1C(=O)N[C@@H](CO)C(N)=O)[C@@H](C)CC)C(=O)O, the Activity [1] was “Non-Toxic”, the AUC(0-inf) [2] was 4200 ng·h/mL and the Cmax [3] was 519 ng/mL. The Activity [4] was “Non-Toxic”, the pEC50 [5] was 10.51 and the Activity [6] was “Active”. The Activity [7] was “Active”, the Activity [8] was “Active” and the Activity [9] was “Non-Toxic”. The half-life [10] was 4 h, the Activity [11] was “Active” and the Activity [12] was “Active”. The Activity [13] was “Non-Toxic”, the Activity [14] was “Non-Toxic” and the Activity [15] was “Non-Toxic”. The Activity [16] was “Active”, the Activity [17] was “Active” and the Activity [18] was “Active”. For the same compound, the Activity [19] was “Active”, the MRT [20] was 7.7 h and the Activity [21] was “Active”. The Activity [22] was “Active”, the Activity [23] was “Active” and the Activity [24] was “Non-Toxic”. The Activity [25] was 132%, the Activity [26] was “Active” and the Activity [27] was “Active”. The AUC at 24 h [28] was 4610 ng·h/mL, the Activity [29] was “Non-Toxic” and the Activity [30] was “Non-Toxic”. For the same compound, the Activity [31] was “Active”, the Activity [32] was “Non-Toxic” and the Activity [33] was “Non-Toxic”. The Activity [34] was 16.3%, the pEC50 [35] was 10.01 and the Activity [36] was “Non-Toxic”. For the same compound, the Activity [37] was “Non-Toxic”, the Activity [38] was 33% and the Activity [39] was “Active”. For the same compound, the Activity [40] was “Active” and the Activity [41] was 29%.
